Data taken from the supplement of paper PMC11997997.

Legend:
[1] = tested on: Mycobacterium tuberculosis CDC1551 (intracellular, in murine BMDM); assay: area under intracellular growth-inhibition dose-response curve (AUC (% inhibition x dose, relative)); higher = more potent; details: duration: 6 days; dose range: 0.13-80 uM, 8 points
How it was run: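 Each value is an area under the growth-inhibition dose–response curve, calculated with GraphPad Prism. Infected primary murine bone marrow-derived macrophages, carrying luciferase-expressing M. tuberculosis CDC1551 at multiplicity of infection 1, were treated for 6 days with an 8-dose, 2.5-fold series (final 80–0.13 μM) in 384-well opaque plates. Readout was by Bright-Glo luciferin assay, normalised to a reference drug control and the lowest-concentration wells.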

[2] = tested on: murine bone marrow-derived macrophages; assay: area under cytotoxicity dose-response curve (AUC (% cytotoxicity x dose, relative)); higher = more cytotoxic; details: duration: 6 days; dose range: 0.13-80 uM, 8 points
How it was run: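 An 8-point, 2.5-fold dilution series (final 80–0.13 μM) was applied for 6 days at 37 °C in 5% CO2 to primary murine bone marrow-derived macrophages plated in opaque 384-well plates. Promega's CellTiter-Glo luminescence assay measured viability, and percent cytotoxicity was normalised against vehicle and positive control wells. The area under the dose–response curve, worked out in GraphPad Prism version 10, is the reported cytotoxicity measure.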

Row | SMILES | area under intracellular growth-inhibition dose-response curve [1] | area under cytotoxicity dose-response curve [2]
1 | CC(=O)OCC1=C(C(=O)O)N2C(=O)C(NC(=O)Cn3nc(C(F)F)c(Cl)c3C)C2SC1 (stereo not given) | 195 | 2.26
2 | Sc1[nH]cnc2ncnc1-2 | 88.6 | < 0
3 | O=C(NCc1cccc(C(F)(F)F)c1)c1ccc[nH]1 | 91 | 2.14
4 | Cc1ccc(OCCOC(=O)c2c(-c3ccccc3)noc2C)cc1 | 200 | < 0
5 | COc1ccc2nc(C)cc(N/N=C/c3ccccc3)c2c1 | 136 | 97.6
6 | COc1ccc(S(=O)(=O)N2CCN(C(=O)C3CC(=O)N(c4ccccc4F)C3)CC2)cc1OC (stereo not given) | 104 | 27.9
7 | CC1CCN(C(=O)C2COc3ccccc3O2)CC1 (stereo not given) | 265 | < 0
8 | Cc1nn(CC(=O)NC2C(=O)N3C(C(=O)O)=C(CSc4nnnn4C)CSC23)cc1Br (stereo not given) | 236 | 30.6
9 | CC(=O)N1CCN(c2ccc(NC(=O)c3ccc([N+](=O)[O-])o3)cc2Cl)CC1 | 49.4 | 88.8
10 | CC(C)(C)c1ccc(OCCNC(=O)c2nc[nH]n2)cc1 | 233 | < 0
11 | CCc1nnc(NS(=O)(=O)c2ccc(N/C=C3/C(=O)NC(=O)N(c4ccccc4)C3=O)cc2)s1 | 31 | 38
12 | Cc1nnc(SCC2=C(C(=O)O)N3C(=O)C(NC(=O)C(C)n4nc(C(F)(F)F)cc4C)C3SC2)s1 (stereo not given) | 176 | 2.61
13 | CC[C@@H](C)[C@@H]1CN([C@@H](CN2CCC[C@H]2CN2C(N)=NC[C@@H]2Cc2ccccc2)C(C)C)C(=N)N1CCCC1CCCC1 | 83.6 | 98.8
14 | COc1ccc(C(=O)Oc2cccc(/C=N/NC(N)=S)c2)cc1 | 145 | 65
15 | O=c1cc(-c2c(F)c(F)c(F)c(F)c2F)oc2ccccc12 | 122 | 11.4
16 | CC1CCN(c2ccc(NC(=O)c3ccc([N+](=O)[O-])o3)cc2)CC1.Cl | 56.1 | 90.4
17 | COC(=O)c1cccc(/C=N/NC(N)=S)c1O | 144 | 32.1
18 | CC1(C)CC(=O)C=C(Nc2ccc(C(=O)O)c(O)c2)C1 | 195 | < 0
19 | O=C(N/N=C/C=C\c1ccccc1[N+](=O)[O-])c1ccncc1 | 260 | 5.73
20 | Cc1ccccc1NC(=O)COC(=O)c1cc(S(=O)(=O)N2CCOCC2)ccc1C | 34.5 | 23.2
21 | Cc1ccc(CNC(=O)c2ccc(Br)o2)cc1 | 267 | < 0
22 | C/C(=N\NC(=O)c1ccncc1)c1cccnc1 | 129 | 90.7
23 | O=C(NCCC1=CCCCC1)c1ccc(F)cc1 | 122 | 3.13
24 | Cc1cs/c(=N\C(=O)c2ccccc2)n1C | 102 | 57.5
25 | COc1sc(SC)cc1/C=N/NC(=O)c1ccncc1 | 176 | 26.8
26 | COc1ccc(/C=C/C(=O)c2ccc([N+](=O)[O-])o2)cc1 | 162 | 71.5
27 | O=C(Nc1cccc([N+](=O)[O-])c1)NC1CCCCCCC1 | 228 | 14
28 | C/C(CC(C)(C)C1CCCCC1)=N\NC(N)=S | 238 | 119
29 | Cc1ccc2sc(N3CCN(C(=O)c4ccc([N+](=O)[O-])o4)CC3)nc2c1C | 12.2 | 11.3
30 | C=C1C(=O)O[C@@H]2C[C@@H](C)[C@@H]3C=CC(=O)[C@@]3(C)[C@@H](OC(C)=O)[C@H]12 | 46.3 | 118
